# From PMC11597167, “Evaluation of Selected Plant Phenolics via Beta-Secretase-1 Inhibition, Molecular Docking, and Gene Expression Related to Alzheimer’s Disease” (Pharmaceuticals, 2024)
# Where two headings read alike, the source gives them in different places.
# Columns and labels:
# human recombinant BACE1 = human recombinant BACE1 (Homo sapiens, UniProt P56817); test: biochemical; assay type: biochemical; settings: n: 3; for BACE1 Inhibition (Inhibition% ± SD): 10 mM stock concentration; for IC50: BACE1
# human recombinant BACE1, sequence (P56817 46-501): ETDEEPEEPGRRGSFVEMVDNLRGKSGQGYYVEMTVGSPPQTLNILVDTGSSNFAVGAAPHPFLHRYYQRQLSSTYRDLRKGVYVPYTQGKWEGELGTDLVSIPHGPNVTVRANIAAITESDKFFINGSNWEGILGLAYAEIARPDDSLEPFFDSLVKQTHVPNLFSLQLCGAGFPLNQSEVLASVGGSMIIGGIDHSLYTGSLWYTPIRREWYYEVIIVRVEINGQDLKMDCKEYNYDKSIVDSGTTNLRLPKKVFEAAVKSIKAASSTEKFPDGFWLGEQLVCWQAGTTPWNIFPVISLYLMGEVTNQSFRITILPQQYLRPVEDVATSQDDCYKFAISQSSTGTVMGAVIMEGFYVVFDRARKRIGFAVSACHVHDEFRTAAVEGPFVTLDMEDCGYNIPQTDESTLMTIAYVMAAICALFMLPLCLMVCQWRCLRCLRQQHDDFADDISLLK
# Procedure: Fluorescence resonance energy transfer (FRET) technology was used to measure the enzymatic activity of BACE1, and measurements were performed by modifying previously used methods and the protocol included in the manufacturer’s (PanVera® Corporation, Madison, […], USA) assay kit. […] The inhibition rate was obtained using the following equation:Inhibition% = [1 − (B − B0)/(K − K0)] × 100
# • K0 = fluorescence value of the control group at minute 0 • K = fluorescence value of the control group at 60 min • B0 = fluorescence value of the test compound at minute 0 • B = fluorescence value of the test compound at 60 min
# [1] = tested on: SH-SY5Y human neuroblastoma cells; assay type: cell-based; settings: 24 h
# Procedure: SH-SY5Y, a human neuroblastoma cell line (purchased from ATCC®, Cat. No. CRL-2266™), was maintained in Dulbecco’s Modified Eagle Medium/Nutrient Mixture F-12 (DMEM/F-12) complemented with 10% heat-inactivated fetal bovine serum (FBS) and 1% penicillin–streptomycin after being processed for 30 min at 56 °C. Cells were cultivated in a sterile incubator at 37 °C with 5% CO2 and 95% relative humidity.
# Cells were maintained in Dulbecco’s Modified Eagle’s Medium (DMEM)/nutrient mixture F-12 (DMEM/F-12) containing 1% penicillin–streptomycin supplemented with 10% fetal bovine serum (FBS) heat-inactivated at 56 °C for 30 min. Cells were cultured in a sterile incubator at 37 °C with 5% CO2 and 95% humidity. Then, 10,000 SH-SY5Y cells in 100 µL of complete medium were seeded in each well of a 96-well plate and incubated for 16–24 h for surface attachment. […] Then, 10 µL of filter-sterilized 0.015% resazurin solution (Sigma-Aldrich, R7017) was added to each well and incubated for 2 h at 37 °C with 5% CO2. Excitation at 560 nm wavelength and emission fluorescence at 590 nm wavelength were measured, and cell viability% was calculated compared to the control group.
# ABCA7 = test: RT-PCR gene expression in SH-SY5Y cells; assay type: cell-based, human; settings: 24 h at IC08, vs DMSO control, normalized to β-actin
# Procedure: (§1) In the RNA isolation protocol, cell pellets were homogenized using 1 mL of TRIzol reagent and incubated for 5 min at room temperature. Chloroform (200 μL) was added, and the mixture was shaken vigorously and incubated for 3 min at room temperature. The mixture was then centrifuged at 10,000 rpm for 15 min at +4 °C, and the upper colorless phase was transferred to an RNase-free microcentrifuge tube. Isopropanol (500 μL) was added to the tube, and the mixture was incubated at room temperature for 10 min and centrifuged at 10,000 rpm for 10 min. The supernatant was removed, and the pellet was washed with at least 75% ethanol (1 mL) and centrifuged at 7500 rpm for 5 min at +4 °C. After removing all of the supernatant from the tube and air-drying the pellet, the RNA-containing pellet was dissolved in approximately 100 μL of nuclease-free water and incubated at 55 °C for 5 min. RNA was stored at -80 °C for long-term storage. cDNA synthesis was performed using the ABM, OneScript® Plus cDNA synthesis kit (Applied Biological Materials Inc. (abm), Richmond, BC, Canada). A mixture of RNA (2000 ng/μL), dNTPs (1 μL), oligo (dT) primer (1 μL), […], and up to 13 μL of nuclease-free water was prepared and incubated at 65 °C for 5 min as described in the protocol supplied with the kit. After incubating the mixture on ice for 1 min, 4 μL of 5X RT buffer and 1 μL of OneScript® Plus RTase were added to the tube. The mixture was incubated at 50 °C for 50 min and 85 °C for 5 min. cDNA was stored at -20 °C for long-term storage. Real-time PCR was performed using ABM, BlasTaqTM 2X qPCR MasterMix, and the CFX Connect real-time system. […] DMSO, the solvent for dissolving the phenolic compounds, was used as the control group. The Qiagen GeneGlobe Complimentary qPCR Data Analysis Portal (Redwood City, CA, USA), utilizing default parameters, was employed to calculate changes in gene expression. CT values were exported from the BioRad CFX Connect real-time qPCR system and normalized against a reference gene. The p-value was derived from a Student's t-test applied to the replicate 2^-ΔΔCT values for each gene in the comparisons between the control and test groups. The p-value calculation employed was derived from a parametric, unpaired, two-sample equal variance, two-tailed distribution, a method that is widely recognized in the scientific literature. Fold change calculations, representing gene expression ratios, were determined using the established ΔΔCT method as initially described by Livak and Schmittgen. […] Multiple groups were compared by ANOVA and Dunnet post hoc test.
# APOE = test: RT-PCR gene expression in SH-SY5Y cells; assay type: cell-based, human; settings: 24 h at IC08, vs DMSO control, normalized to β-actin
# Procedure: as §1
# APP = test: RT-PCR gene expression in SH-SY5Y cells; assay type: cell-based, human; settings: 24 h at IC08, vs DMSO control, normalized to β-actin
# Procedure: as §1
# BIN1 = test: RT-PCR gene expression in SH-SY5Y cells; assay type: cell-based, human; settings: 24 h at IC08, vs DMSO control, normalized to β-actin
# Procedure: as §1
# CCL5 = test: RT-PCR gene expression in SH-SY5Y cells; assay type: cell-based, human; settings: 24 h at IC08, vs DMSO control, normalized to β-actin
# Procedure: as §1
# CD2AP = test: RT-PCR gene expression in SH-SY5Y cells; assay type: cell-based, human; settings: 24 h at IC08, vs DMSO control, normalized to β-actin
# Procedure: as §1
# CD33 = test: RT-PCR gene expression in SH-SY5Y cells; assay type: cell-based, human; settings: 24 h at IC08, vs DMSO control, normalized to β-actin
# Procedure: as §1
# CLU = test: RT-PCR gene expression in SH-SY5Y cells; assay type: cell-based, human; settings: 24 h at IC08, vs DMSO control, normalized to β-actin
# Procedure: as §1
# CR1 = test: RT-PCR gene expression in SH-SY5Y cells; assay type: cell-based, human; settings: 24 h at IC08, vs DMSO control, normalized to β-actin
# Procedure: as §1
# MMP9 = test: RT-PCR gene expression in SH-SY5Y cells; assay type: cell-based, human; settings: 24 h at IC08, vs DMSO control, normalized to β-actin
# Procedure: as §1
# PICALM = test: RT-PCR gene expression in SH-SY5Y cells; assay type: cell-based, human; settings: 24 h at IC08, vs DMSO control, normalized to β-actin
# Procedure: as §1
# PSEN1 = test: RT-PCR gene expression in SH-SY5Y cells; assay type: cell-based, human; settings: 24 h at IC08, vs DMSO control, normalized to β-actin
# Procedure: as §1
# SORL1 = test: RT-PCR gene expression in SH-SY5Y cells; assay type: cell-based, human; settings: 24 h at IC08, vs DMSO control, normalized to β-actin
# Procedure: as §1
# TNF = test: RT-PCR gene expression in SH-SY5Y cells; assay type: cell-based, human; settings: 24 h at IC08, vs DMSO control, normalized to β-actin
# Procedure: as §1
# BACT = test: RT-PCR gene expression in SH-SY5Y cells (reference gene); assay type: cell-based, human; settings: 24 h at IC08, β-actin, the normalizing reference gene
# Procedure: as §1
# BACE1 = settings: earlier study, cited from earlier work
# APP/PS1 transgenic mice = tested on: APP/PS1 transgenic mice; parameters: method as in PMID 32913125; settings: 6 months at 20 mg/kg b.w.; cited from earlier work
# [2] = read-out: IC50 (inhibitory effect against BACE1)
# [3] = concentration with 8% inhibition (92% viability), SH-SY5Y, Mean ± SD
smiles,measurement,setting,value
"C/C=C1/[C@H](O[C@@H]2O[C@H](CO)[C@@H](O)[C@H](O)[C@H]2O)OC=C(C(=O)OC)[C@H]1CC(=O)OCCc1ccc(O)c(O)c1 [Oleuropein, oleuropein]",BACE1 Inhibition (Inhibition% ± SD),human recombinant BACE1,52.38 ± 2.08%
same,IC50,human recombinant BACE1,9870 ± 1010 µM
same,IC08 Values,[1]; human,171 ± 22.01 µM
same,Fold Regulation ABCA7,ABCA7,2.42
same,Fold Regulation APOE,APOE,−1.33
same,Fold Regulation APP,APP,1.05
same,Fold Regulation BIN1,BIN1,−1.14
same,Fold Regulation CCL5,CCL5,2.67
same,Fold Regulation CD2AP,CD2AP,1.31
same,Fold Regulation CD33,CD33,3.88
same,Fold Regulation CLU,CLU,−1.78
same,Fold Regulation CR1,CR1,3.45
same,Fold Regulation MMP9,MMP9,5.31
same,Fold Regulation PICALM,PICALM,1.43
same,Fold Regulation PSEN1,PSEN1,−1.07
same,Fold Regulation SORL1,SORL1,1.90
same,Fold Regulation TNF,TNF,2.09
same,Fold Regulation BACT,BACT,1.00
same,IC50,BACE1; [2],2.76 ± 0.23 µM
"O=c1c(O)c(-c2ccc(O)c(O)c2)oc2cc(O)cc(O)c12 [Quercetin, 3,3′,4′,5,7-pentahydroxyflavone, reference compound]",BACE1 Inhibition (Inhibition% ± SD),human recombinant BACE1,86.87 ± 4.48%
same,IC08 Values,[1]; [3],27 ± 5.30 µM
"O=C(O[C@@H]1Cc2c(O)cc(O)cc2O[C@@H]1c1cc(O)c(O)c(O)c1)c1cc(O)c(O)c(O)c1 [EGCG, epigallocatechin gallate]",IC08 Values,[1]; [3],103 ± 12.47 µM
"O=C(O)c1cc(O)c(O)c(O)c1 [Gallic acid, 3,4,5-trihydroxybenzoic acid]",BACE1 Inhibition (Inhibition% ± SD),human recombinant BACE1,27.51 ± 2.97%
same,BACE1 Inhibition (Inhibition% ± SD),human recombinant BACE1; listed as gallic acid,below 50%
same,IC08 Values,[1]; [3],187 ± 7.11 µM
same,Fold Regulation ABCA7,ABCA7,1.55
same,Fold Regulation APOE,APOE,−1.07
same,Fold Regulation APP,APP,1.15
same,Fold Regulation BIN1,BIN1,1.16
same,Fold Regulation CCL5,CCL5,1.92
same,Fold Regulation CD2AP,CD2AP,1.15
same,Fold Regulation CD33,CD33,2.40
same,Fold Regulation CLU,CLU,−1.11
same,Fold Regulation CR1,CR1,2.20
same,Fold Regulation MMP9,MMP9,3.14
same,Fold Regulation PICALM,PICALM,1.22
same,Fold Regulation PSEN1,PSEN1,−1.11
same,Fold Regulation SORL1,SORL1,1.65
same,Fold Regulation TNF,TNF,2.06
same,Fold Regulation BACT,BACT,1.00
same,spatial reference learning and memory impairment,APP/PS1 transgenic mice,totally reversed
"O=C(/C=C/c1ccc(O)c(O)c1)O[C@H](Cc1ccc(O)c(O)c1)C(=O)O [Rosmarinic acid, rosmarinic acid]",BACE1 Inhibition (Inhibition% ± SD),human recombinant BACE1,67.04 ± 0.64%
same,IC50,human recombinant BACE1,4060 ± 680 µM
same,IC08 Values,[1]; human,546 ± 31.55 µM
same,Fold Regulation ABCA7,ABCA7,−1.07
same,Fold Regulation APOE,APOE,1.45
same,Fold Regulation APP,APP,1.01
same,Fold Regulation BIN1,BIN1,1.33
same,Fold Regulation CCL5,CCL5,1.82
same,Fold Regulation CD2AP,CD2AP,1.08
same,Fold Regulation CD33,CD33,1.88
same,Fold Regulation CLU,CLU,1.11
same,Fold Regulation CR1,CR1,1.34
same,Fold Regulation MMP9,MMP9,3.02
same,Fold Regulation PICALM,PICALM,1.32
same,Fold Regulation PSEN1,PSEN1,1.55
same,Fold Regulation SORL1,SORL1,1.23
same,Fold Regulation TNF,TNF,1.75
same,Fold Regulation BACT,BACT,1.00
same,IC50,BACE1; read-out: IC50 (BACE1 inhibitory potential),21 µM
"OCCc1ccc(O)c(O)c1 [3-Hydroxytyrosol, 3-hydroxytyrosol]",BACE1 Inhibition (Inhibition% ± SD),human recombinant BACE1,45.33 ± 0.22%
same,BACE1 Inhibition (Inhibition% ± SD),human recombinant BACE1; listed as 3-hydroxytyrosol,below 50%
same,IC50,human recombinant BACE1,> 10000 µM
same,IC08 Values,[1]; [3],278 ± 12.21 µM
same,Fold Regulation ABCA7,ABCA7,1.82
same,Fold Regulation APOE,APOE,−1.17
same,Fold Regulation APP,APP,−1.07
same,Fold Regulation BIN1,BIN1,1.87
same,Fold Regulation CCL5,CCL5,3.61
same,Fold Regulation CD2AP,CD2AP,1.36
same,Fold Regulation CD33,CD33,2.88
same,Fold Regulation CLU,CLU,1.15
same,Fold Regulation CR1,CR1,2.86
same,Fold Regulation MMP9,MMP9,4.38
same,Fold Regulation PICALM,PICALM,1.21
same,Fold Regulation PSEN1,PSEN1,−1.08
same,Fold Regulation SORL1,SORL1,1.81
same,Fold Regulation TNF,TNF,2.04
same,Fold Regulation BACT,BACT,1.00
same,IC50,BACE1; [2],0.035 ± 0.04 µM
